Assay [1] deals with brain amyloid peptides Aβ1-x. Nature of the assay: Rat Brain Aβ Lowering Assay (Assay 5). It is filed as in vivo. As to conditions: 3 hrs after dosing. How it is done: Rat Brain Aβ Lowering Assay (Assay 5)
The animals were sacrificed 3 hrs after dosing, and brains were excised, dissected into cerebellum and left and right cerebra and flash-frozen in liquid nitrogen.
The cerebrum was homogenized (5 volumes per weight) in 20 mM Tris-HCL, pH 8.5, 0.2% Triton-X100 supplemented with protease inhibitors (complete, Roche Applied Science) at 4° C. using a glass Dounce homogenizer. The homogenate was centrifuged at 120,000×g for 60 min at 4° C., and the supernatant was collected and analyzed for Ab1-x using immunoassay with chemiluminescent detection (Meso-Scale Discovery, Rockville, Md. (MSD)).
Streptavidin 96-well plates (MSD) were pre-blocked with 5% Blocker A solution (MSD) for 1 hr at rt on an orbital shaker and washed 4 times with phosphate buffered saline (PBS). The wells were pre-coated with 20 ng/well of biotinylated antibody SIG-39155 (Clone M3.2, specific for amino acids 10-15 of the rodent Aβ) for 1 hr at rt and washed 4 times with PBS. For Aβ1-x analysis, 25 μl of either the cleared brain lysates or Aβ1-40 standards (8-500 pg/ml, with 2× increment) were incubated for 1 hr at rt with constant shaking. The wells were washed 4 times with PBS, and 25 μl of the detection antibody (Sulfo-TAG labeled anti-Aβ40 antibody supplied by MSD) was added and incubated for 1 hr at rt. After 4 washes with PBS, 150 μl of the chemiluminescence detection reagent (Read Buffer T, MSD) was added, and the plate was read on an MSD Sector Imager 6000 instrument. The calibration curve was fit into a non-linear four-parameter regression model, and the Aβ1-x concentrations were calculated for each well containing the cleared brain lysates. The percent of Aβ lowering was calculated based on the difference with the average Aβ concentration obtained for the brains from the animals treated with vehicle alone.

The target in assay [2] is truncated human beta-secretase, BACE1 (amino acids 1-454) (Homo sapiens (Human), UniProt P56817). The experiment in a line: BACE1 Assay (Assay 1), fluorescence quench assay. Type of assay: biochemical. Particulars: read-out: BACE1 IC50 nM (assay 1). On the procedure: The substrate was dissolved at 1 mg/ml in DMSO.
Sequence of truncated human beta-secretase, BACE1 (amino acids 1-454) (P56817 22-454): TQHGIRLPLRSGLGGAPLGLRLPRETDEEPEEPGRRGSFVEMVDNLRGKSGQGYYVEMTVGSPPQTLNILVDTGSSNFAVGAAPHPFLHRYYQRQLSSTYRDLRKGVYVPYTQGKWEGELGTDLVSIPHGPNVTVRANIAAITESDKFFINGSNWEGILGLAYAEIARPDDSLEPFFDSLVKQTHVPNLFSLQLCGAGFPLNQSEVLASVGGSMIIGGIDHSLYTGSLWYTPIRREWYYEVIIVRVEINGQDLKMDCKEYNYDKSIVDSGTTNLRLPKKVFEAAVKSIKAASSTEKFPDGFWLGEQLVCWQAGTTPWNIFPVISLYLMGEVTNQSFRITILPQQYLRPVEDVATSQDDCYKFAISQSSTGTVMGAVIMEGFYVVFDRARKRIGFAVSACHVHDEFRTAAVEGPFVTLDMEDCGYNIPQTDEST
The assay was performed in the presence of OptiMEM (supernatant collected over 24 h and cleared from cellular debris by centrifugation) containing the ectodomain of BACE1, 25 μl water containing the desired 2-fold concentration of test compound and 2% DMSO, 1 μM substrate peptide, 20 mM NaOAc, pH 4.4, and 0.04% Triton-X100 in a total assay volume of 50 μl in a 384 well plate. In general, 25 μl of compound dilution were given to the plate followed by the addition of 10 μl of BACE1 containing OptiMEM™ diluted 1:10 in water with 0.2% Triton X-100. The reaction was started with the addition of 15 μl substrate in NaOAc buffer. The reaction was incubated at rt (dark) in an Envision® multilabel reader (Perkin Elmer) and the cleavage of the substrate was recorded as kinetic for 60 min at ex: 485 nm, em: 538 nm. Blank wells containing no enzyme were included on each plate.
The intensity of fluorescence was regressed against time in order to derive velocities of reaction in all 384 wells. These velocities were used for calculating percent control using an uninhibited control containing 1% DMSO as 100% and blank control performed in the absence of enzyme as 0%. IC50 values were calculated by fitting percent control vs. test compound concentration using Assay Explorer.

SMILES strings stand for the structures.

`CO[C@H]1[C@H](C)C[C@@]2(Cc3ccc(C#N)cc3[C@]23N=C(N)N(C[C@@H]2CCO2)C3=O)C[C@@H]1C` (stereo in doubt) [Example 18]: in assay [1] (single oral dose 25 mg/kg), the “% Aβ Reduction” value was 56%. Also, the IC50 in assay [2] was 9 nM.
In the case of `CC[C@@H]1C[C@]2(CC[C@H]1OC)Cc1ccc(C#N)cc1[C@]21N=C(N)N(CC2CCOCC2)C1=O` [Example 2], the “% Aβ Reduction” value in assay [1] (single oral dose 30 mg/kg) is given as 42%. The IC50 in assay [2] was 8 nM.
With `CC[C@@H]1C[C@]2(CC[C@H]1OC)Cc1ccc(C#N)cc1[C@]21N=C(N)N(CC2(F)CCOCC2)C1=O` [Example 4], the “% Aβ Reduction” value in assay [1] (single oral dose 25 mg/kg) is 75%. The IC50 in assay [2] amounted to 5 nM.
The matching figures for `CO[C@H]1CC[C@@]2(Cc3ccc(C#N)cc3[C@]23N=C(N)N(CC2(C)COC2)C3=O)C[C@@H]1C` [Example 8]: 37% and 5 nM.
In the same order, the values of `CO[C@H]1CC[C@@]2(Cc3ccc(C#N)cc3[C@]23N=C(N)N(Cc2ccncn2)C3=O)C[C@@H]1C` [Example 9] are 37% and 9 nM.
The matching figures for `CO[C@H]1[C@H](C)C[C@@]2(Cc3ccc(C#N)cc3[C@]23N=C(N)N(C2COC2)C3=O)C[C@@H]1C` [Example 12]: 39% and 3 nM.
`CO[C@H]1[C@H](C)C[C@@]2(Cc3ccc(C#N)cc3[C@]23N=C(N)N(CC2COC2)C3=O)C[C@@H]1C` [Example 13]: the “% Aβ Reduction” value in assay [1] (single oral dose 30 mg/kg) is listed as 47%. For the same compound, the IC50 in assay [2] turned out to be 9 nM.
In the case of `CO[C@H]1[C@H](C)C[C@@]2(Cc3ccc(C#N)cc3[C@]23N=C(N)N(C[C@H]2CCCO2)C3=O)C[C@@H]1C` [Example 14], the “% Aβ Reduction” value in assay [1] (single oral dose 25 mg/kg) amounted to 67%. Moreover, in assay [2], the IC50 is 5 nM.
Take `CO[C@H]1[C@H](C)C[C@@]2(Cc3ccc(C#N)cc3[C@]23N=C(N)N(C[C@@H]2CCCO2)C3=O)C[C@@H]1C` [Example 15]: in assay [1] (single oral dose 25 mg/kg), the “% Aβ Reduction” value worked out at 62%. For the same compound, the IC50 in assay [2] worked out at 11 nM.
In the same order, the values of `CO[C@H]1[C@H](C)C[C@@]2(Cc3ccc(C#N)cc3[C@]23N=C(N)N(CC(C)(C)F)C3=O)C[C@@H]1C` [Example 17] are 70% and 14 nM.
Take `CO[C@H]1[C@H](C)C[C@@]2(Cc3ccc(C#N)cc3[C@]23N=C(N)N(C[C@@H]2COCCO2)C3=O)C[C@@H]1C` [Example 21]: in assay [1] (single oral dose 50 mg/kg), the “% Aβ Reduction” value was 59%. In addition, the IC50 in assay [2] turned out to be 5 nM.
Take `CO[C@H]1[C@H](C)C[C@@]2(Cc3ccc(C#N)cc3[C@]23N=C(N)N(C[C@H]2COCCO2)C3=O)C[C@@H]1C` [Example 22]: the “% Aβ Reduction” value in assay [1] (single oral dose 12.5 mg/kg) stood at 45%. Besides, in assay [2], the IC50 worked out at 8 nM.
On to `CO[C@H]1[C@H](C)C[C@@]2(Cc3ccc(C#N)cc3[C@]23N=C(N)N(CC2(F)CCOCC2)C3=O)C[C@@H]1C` [Example 23], for which, in assay [1] (single oral dose 25 mg/kg), the “% Aβ Reduction” value amounted to 68%. The IC50 in assay [2] came to 12 nM.
Regarding `CC[C@@H]1C[C@@]2(Cc3ccc(C#N)cc3[C@]23N=C(N)N(CC(C)(C)F)C3=O)C[C@H](C)[C@H]1OC` [Example 26], the “% Aβ Reduction” value in assay [1] (single oral dose 25 mg/kg) is listed as 71%. Further, in assay [2], the IC50 is 9 nM.

The values are drawn from patent publication US8981112B2, “Inhibitors of β-secretase” (Boehringer Ingelheim International GmbH, priority 2012, dated 2015).
